Several values for one entry are separate records, joined by “and”; a condition that tells them apart may be missing. Equal entries are not always repeated.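 A five-concentration, 48-hour dose response in 96-well plates underlies each endpoint, interpolated linearly between surrounding concentrations. GI50 = concentration required for 50% inhibition of growth. Definition used: TGI = concentration required for complete inhibition of growth.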
Legend:
Assay in all cases: DTP human tumour cell line panel, 48 h
A498 renal = tested on: A498 renal
HCT-15 colon = tested on: HCT-15 colon
HL-60(TB) leukemia = tested on: HL-60(TB) leukemia
IGROV1 ovarian = tested on: IGROV1 ovarian
MALME-3M melanoma = tested on: MALME-3M melanoma
NCI/ADR-RES ovarian = tested on: NCI/ADR-RES ovarian
OVCAR-5 ovarian = tested on: OVCAR-5 ovarian
SK-MEL-5 melanoma = tested on: SK-MEL-5 melanoma
SR leukemia = tested on: SR leukemia
UACC-62 melanoma = tested on: UACC-62 melanoma

Row | Structure (SMILES) | GI50 (A498 renal) | TGI (A498 renal) | GI50 (HCT-15 colon) | TGI (HCT-15 colon) | GI50 (HL-60(TB) leukemia) | TGI (HL-60(TB) leukemia) | GI50 (IGROV1 ovarian) | TGI (IGROV1 ovarian) | GI50 (MALME-3M melanoma) | TGI (MALME-3M melanoma) | GI50 (NCI/ADR-RES ovarian) | TGI (NCI/ADR-RES ovarian) | GI50 (OVCAR-5 ovarian) | TGI (OVCAR-5 ovarian) | GI50 (SK-MEL-5 melanoma) | TGI (SK-MEL-5 melanoma) | GI50 (SR leukemia) | TGI (SR leukemia) | GI50 (UACC-62 melanoma) | TGI (UACC-62 melanoma)
1 | N#C/C(=C\c1ccc([N+](=O)[O-])cc1)n1nnc2cc(F)c(F)cc21 | 1.9 µM | 3.71 µM | 1.93 µM | 5.44 µM | 2.36 µM | 5.78 µM | 1.72 µM | 4 µM | 2.08 µM | 5.3 µM | 2.96 µM | 11.6 µM | 1.77 µM | 3.41 µM | 1.89 µM | 3.69 µM | 1.08 µM | > 100 µM | 1.66 µM | 3.36 µM
2 | CC(C)[C@]12O[C@H]1[C@@H]1O[C@]13[C@]1(O[C@H]1C[C@H]1C4=C(CC[C@@]13C)C(=O)OC4)[C@@H]2OC(=O)OC(C)(C)C | 0.0145 µM | 0.0454 µM | 0.0253 µM | > 100 µM | < 0.01 µM | 0.805 µM | 0.0164 µM |  | 0.0166 µM | 0.0555 µM | 0.0286 µM | 10.5 µM | 0.0419 µM | > 100 µM | 0.0114 µM | 0.0247 µM | 0.0159 µM |  | 0.0178 µM | 0.0571 µM
3 | COc1ccc(/C=C/C(=O)c2ccc(B(O)O)cc2)cc1O | 5.47 µM | 21.8 µM | 4.95 µM | > 39.3 µM | 2.52 µM | 44.2 µM | 12.5 µM | > 54.4 µM | 32.3 µM | > 100 µM | 26.8 µM | > 100 µM | 21.5 µM | 69.5 µM | 14.6 µM | 37.5 µM | 3.2 µM | > 100 µM | 14.3 µM | 33.2 µM
4 | COC(=O)Nc1nc2ccc(C(=O)C3CC3)cc2[nH]1 | 0.421 µM |  | 0.385 µM | > 100 µM | 0.448 µM | > 100 µM | 0.29 µM | 18.2 µM | 0.392 µM | > 100 µM | 0.329 µM | 9.82 µM | 3.25 µM | > 56.1 µM | 0.385 µM | 6.23 µM | 0.455 µM | > 100 µM | 0.487 µM | > 100 µM
5 | OC1CCC(COC(c2ccccc2)(c2ccccc2)c2ccccc2)O1 (stereo not given) |  | 35.8 µM |  | 44.5 µM |  | 39.7 µM |  | 36.8 µM |  | 42.3 µM |  | 48.3 µM |  | 45.2 µM |  | 30.9 µM |  | > 10 µM |  | 33.8 µM
6 | CCOC(=O)Nc1nc(-c2ccccc2)c(C)s1 |  | > 100 µM |  | > 100 µM |  | 90.5 µM |  | > 100 µM |  | > 100 µM |  | > 100 µM |  | > 100 µM |  | > 100 µM |  | > 100 µM |  | > 100 µM
7 | NS(=O)(=O)c1ccc(N=Nc2c(O)[nH]c3cccc(CCc4ccncc4)c23)cc1 | > 25 µM | > 25 µM | > 25 µM | > 25 µM | > 25 µM | > 25 µM | > 25 µM | > 25 µM | > 25 µM | > 25 µM | > 25 µM | > 25 µM | > 25 µM | > 25 µM | > 25 µM | > 25 µM | > 25 µM | > 25 µM | > 25 µM | > 25 µM
8 | Nc1nc(N)c2cc(Sc3ccc(Cl)cc3)ccc2n1 | 3.19 µM | 19 µM | 0.491 µM | 14.9 µM | 0.6 µM | 2.47 µM | 0.874 µM | 18.7 µM | 1.25 µM | 3.27 µM | 0.793 µM | 16.1 µM | 2.05 µM | 17.5 µM | 0.762 µM | 2.06 µM | 1.37 µM | 5.43 µM | 0.795 µM | 14.5 µM
9 | COC(=O)CC12CC(NC(=O)c3csc([C@@H](C[C@H](C(C)C)N(C)C(=O)[C@@H](NC(=O)[C@H]4CCCCN4C)C(C)C)OC(C)=O)n3)(C1)C2 | 0.00384 µM and 0.00545 µM | 0.0224 µM | 0.0183 µM and 0.0254 µM | > 33.3 µM | 0.00282 µM and 0.00685 µM | 0.0111 µM and 0.0181 µM | 0.00917 µM and 0.0162 µM | > 33.3 µM | 0.00491 µM |  | 0.0659 µM and 0.122 µM |  | 0.0049 µM and 0.0165 µM | > 33.3 µM | 0.00191 µM and 0.00412 µM | 0.0487 µM and 0.074 µM | 0.00187 µM and 0.00333 µM | > 33.3 µM | 0.00325 µM and 0.00622 µM | > 33.3 µM
